# Activity calls are given as the source filed them. The rule behind the calls is not given here.
# Tests used:
# Hepatocyte [1] = experiment: Downregulation of TGF-beta1 and miR-190a-5p inhibitor induced HGF mRNA expression in C57/B6J mouse primary hepatocytes at 10 uM by qRT-PCR analysis; type: functional, cell-based
# Hepatocyte [2] = experiment: Induction of apoptosis in TGF-beta1-stimulated C57/B6J mouse primary hepatocytes assessed as reversal of miR-190a-5p inhibitor induced increase in Bcl-2 expression at 10 uM by Western blot analysis; type: functional, cell-based
# Hepatocyte [3] = experiment: Induction of apoptosis in TGF-beta1-stimulated C57/B6J mouse primary hepatocytes assessed as reversal of miR-190a-5p inhibitor induced decrease in cleaved-caspase 3 expression at 10 uM by Western blot analysis; type: functional, cell-based
# Hepatocyte [4] = experiment: Inhibition of TGF-beta1 induced apoptosis in C57/B6J mouse primary hepatocytes assessed as early apoptotic cells at 10 uM in presence of miR-190a-5p inhibitor by Annexin-V-FITC-H and PI staining based flow cytometry analysis (reference value: 18.90 %); type: functional; set-up: scale not given: the % may be the effect or the level left
# Hepatocyte [5] = experiment: Inhibition of TGF-beta1 induced apoptosis in C57/B6J mouse primary hepatocytes assessed as late apoptotic cells at 10 uM in presence of miR-190a-5p inhibitor by Annexin-V-FITC-H and PI staining based flow cytometry analysis (reference value: 13.96 %); type: functional; set-up: scale not given: the % may be the effect or the level left
# Hepatocyte [6] = experiment: Inhibition of TGF-beta1 induced apoptosis in C57/B6J mouse primary hepatocytes assessed as dead cells at 10 uM in presence of miR-190a-5p inhibitor by Annexin-V-FITC-H and PI staining based flow cytometry analysis (reference value: 5.49 %); type: functional; set-up: scale not given: the % may be the effect or the level left
# Hepatocyte [7] = experiment: Downregulation of TGF-beta1 and miR-190a-5p inhibitor induced HGF protein expression C57/B6J mouse primary hepatocytes at 10 uM by Western blot analysis; type: functional, cell-based
# Hepatocyte [8] = experiment: Inhibition of TGF-beta1 induced apoptosis in C57/B6J mouse primary hepatocytes assessed as live cells at 10 uM in presence of miR-190a-5p inhibitor by Annexin-V-FITC-H and PI staining based flow cytometry analysis (reference value: 61.65 %); type: functional; set-up: scale not given: the % may be the effect or the level left
# Hepatocyte [9] = experiment: Inhibition of TGF-beta1 induced apoptosis in C57/B6J mouse primary hepatocytes assessed as dead cells at 25 uM by Annexin-V-FITC-H and PI staining based flow cytometry analysis (reference value: 3.09 %); type: functional; set-up: scale not given: the % may be the effect or the level left
# Hepatocyte [10] = experiment: Inhibition of TGF-beta1 induced apoptosis in C57/B6J mouse primary hepatocytes assessed as live cells at 50 uM by Annexin-V-FITC-H and PI staining based flow cytometry analysis (reference value: 66.08 %); type: functional; set-up: scale not given: the % may be the effect or the level left
# Hepatocyte [11] = experiment: Inhibition of TGF-beta1 induced apoptosis in C57/B6J mouse primary hepatocytes assessed as early apoptotic cells in presence of miR-190a-5p mimic by Annexin-V-FITC-H and PI staining based flow cytometry analysis (reference value: 19.89 %); type: functional; set-up: scale not given: the % may be the effect or the level left
# Hepatocyte [12] = experiment: Inhibition of TGF-beta1 induced apoptosis in C57/B6J mouse primary hepatocytes assessed as late apoptotic cells at 50 uM by Annexin-V-FITC-H and PI staining based flow cytometry analysis (reference value: 12.12 %); type: functional; set-up: scale not given: the % may be the effect or the level left
# Hepatocyte [13] = experiment: Downregulation of miR-190a-5p expression in TGF-beta induced C57/B6J mouse primary hepatocytes at 10 to 50 uM incubated for 4 hrs by qRT-PCR analysis; type: functional, cell-based; details: dose 10-50 µM
# Hepatocyte [14] = experiment: Inhibition of TGF-beta1 induced apoptosis in C57/B6J mouse primary hepatocytes assessed as late apoptotic cells in presence of miR-190a-5p mimic by Annexin-V-FITC-H and PI staining based flow cytometry analysis (reference value: 12.03 %); type: functional; set-up: scale not given: the % may be the effect or the level left
# Hepatocyte [15] = experiment: Inhibition of TGF-beta1 induced apoptosis in C57/B6J mouse primary hepatocytes assessed as dead cells at 50 uM by Annexin-V-FITC-H and PI staining based flow cytometry analysis (reference value: 3.09 %); type: functional; set-up: scale not given: the % may be the effect or the level left
# Hepatocyte [16] = experiment: Inhibition of TGF-beta1 induced apoptosis in C57/B6J mouse primary hepatocytes assessed as early apoptotic cells at 50 uM by Annexin-V-FITC-H and PI staining based flow cytometry analysis (reference value: 18.71 %); type: functional; set-up: scale not given: the % may be the effect or the level left
# Mus musculus [17] = experiment: Antifibrotic activity in CCL-4 induced liver fibrosis C57/B6J mouse model assessed as increase in HGF expression at 100 mg/kg/day, ip measured after 72 hrs post last dose by Western blot analysis; type: functional, organism-based
# Mus musculus [18] = experiment: Antifibrotic activity in CCL-4 induced liver fibrosis C57/B6J mouse model assessed as reduction in serum AST level at 100 mg/kg/day, ip measured after 72 hrs post last dose by ELISA; type: functional, organism-based
# Hepatocyte [19] = experiment: Inhibition of TGF-beta1 induced apoptosis in C57/B6J mouse primary hepatocytes assessed as decrease in cleaved-caspase-3 expression at 10 to 50 uM by Western blot analysis; type: functional, cell-based; details: dose 10-50 µM
# Hepatocyte [20] = experiment: Inhibition of TGF-beta1 induced apoptosis in C57/B6J mouse primary hepatocytes assessed as live cells in presence of miR-190a-5p mimic by Annexin-V-FITC-H and PI staining based flow cytometry analysis (reference value: 64.40 %); type: functional; set-up: scale not given: the % may be the effect or the level left
# Hepatocyte [21] = experiment: Inhibition of TGF-beta1 induced apoptosis in C57/B6J mouse primary hepatocytes assessed as live cells at 10 uM by Annexin-V-FITC-H and PI staining based flow cytometry analysis (reference value: 66.08 %); type: functional; set-up: scale not given: the % may be the effect or the level left
# Hepatocyte [22] = experiment: Inhibition of TGF-beta1 induced apoptosis in C57/B6J mouse primary hepatocytes assessed as dead cells by Annexin-V-FITC-H and PI staining based flow cytometry analysis (reference value: 3.68 %); type: functional; set-up: scale not given: the % may be the effect or the level left
# Hepatocyte [23] = experiment: Inhibition of TGF-beta1 induced apoptosis in C57/B6J mouse primary hepatocytes assessed as live cells at 25 uM by Annexin-V-FITC-H and PI staining based flow cytometry analysis (reference value: 66.08 %); type: functional; set-up: scale not given: the % may be the effect or the level left
# Mus musculus [24] = experiment: Antifibrotic activity in CCL-4 induced liver fibrosis C57/B6J mouse model assessed as reduction in disorganized and interlaced fibers at 100 mg/kg/day, ip measured after 72 hrs post last dose by HE/Sirus red/TUNEL staining based analysis; type: functional, organism-based
# Hepatocyte [25] = experiment: Inhibition of TGF-beta1 induced apoptosis in C57/B6J mouse primary hepatocytes assessed as early apoptotic cells by Annexin-V-FITC-H and PI staining based flow cytometry analysis (reference value: 19.89 %); type: functional; set-up: scale not given: the % may be the effect or the level left
# Hepatocyte [26] = experiment: Inhibition of TGF-beta1 induced apoptosis in C57/B6J mouse primary hepatocytes assessed as dead cells at 10 uM by Annexin-V-FITC-H and PI staining based flow cytometry analysis (reference value: 3.09 %); type: functional; set-up: scale not given: the % may be the effect or the level left
# HepG2 = experiment: Downregulation of miR-190a-5p expression in TGF-beta induced human HepG2 cells at 10 to 50 uM incubated for 4 hrs by qRT-PCR analysis; type: functional, cell-based; details: dose 10-50 µM
# Hepatocyte [27] = experiment: Inhibition of TGF-beta1 induced apoptosis in C57/B6J mouse primary hepatocytes assessed as late apoptotic cells at 25 uM by Annexin-V-FITC-H and PI staining based flow cytometry analysis (reference value: 12.12 %); type: functional; set-up: scale not given: the % may be the effect or the level left
# Hepatocyte [28] = experiment: Inhibition of TGF-beta1 induced apoptosis in C57/B6J mouse primary hepatocytes assessed as live cells by Annexin-V-FITC-H and PI staining based flow cytometry analysis (reference value: 64.40 %); type: functional; set-up: scale not given: the % may be the effect or the level left
# Hepatocyte [29] = experiment: Inhibition of TGF-beta1 induced apoptosis in C57/B6J mouse primary hepatocytes assessed as increase in Bcl-2 expression at 10 to 50 uM by Western blot analysis; type: functional, cell-based; details: dose 10-50 µM
# Hepatocyte [30] = experiment: Inhibition of TGF-beta1 induced apoptosis in C57/B6J mouse primary hepatocytes assessed as early apoptotic cells at 25 uM by Annexin-V-FITC-H and PI staining based flow cytometry analysis (reference value: 18.71 %); type: functional; set-up: scale not given: the % may be the effect or the level left
# Mus musculus [31] = experiment: Inhibition of apoptosis in CCL-4 induced liver fibrosis C57/B6J mouse model at 100 mg/kg/day, ip measured after 72 hrs post last dose; type: functional, organism-based
# Mus musculus [32] = experiment: Antifibrotic activity in CCL-4 induced liver fibrosis C57/B6J mouse model assessed as reduction in hydroxyproline level in liver at 100 mg/kg/day, ip measured after 72 hrs post last dose; type: functional, organism-based
# Hepatocyte [33] = experiment: Inhibition of TGF-beta1 induced apoptosis in C57/B6J mouse primary hepatocytes assessed as late apoptotic cells at 10 uM by Annexin-V-FITC-H and PI staining based flow cytometry analysis (reference value: 12.12 %); type: functional; set-up: scale not given: the % may be the effect or the level left
# Hepatocyte [34] = experiment: Inhibition of TGF-beta1 induced apoptosis in C57/B6J mouse primary hepatocytes assessed as early apoptotic cells at 10 uM by Annexin-V-FITC-H and PI staining based flow cytometry analysis (reference value: 18.71 %); type: functional; set-up: scale not given: the % may be the effect or the level left
# Hepatocyte [35] = experiment: Inhibition of TGF-beta1 induced apoptosis in C57/B6J mouse primary hepatocytes assessed as late apoptotic cells by Annexin-V-FITC-H and PI staining based flow cytometry analysis (reference value: 12.03 %); type: functional; set-up: scale not given: the % may be the effect or the level left
# Mus musculus [36] = experiment: Antifibrotic activity in CCL-4 induced liver fibrosis C57/B6J mouse model assessed as reduction in miR-190a-5p expression in liver at 100 mg/kg/day, ip measured after 72 hrs post last dose by qRT-PCR analysis; type: functional, organism-based
# Mus musculus [37] = experiment: Antifibrotic activity in CCL-4 induced liver fibrosis C57/B6J mouse model assessed as reduction in COL1A1 mRNA expression at 100 mg/kg/day, ip measured after 72 hrs post last dose by qRT-PCR analysis; type: functional, organism-based
# Mus musculus [38] = experiment: Antifibrotic activity in CCL-4 induced liver fibrosis C57/B6J mouse model assessed as increase in albumin level in serum at 100 mg/kg/day, ip measured after 72 hrs post last dose by ELISA; type: functional, organism-based
# Mus musculus [39] = experiment: Antifibrotic activity in CCL-4 induced liver fibrosis C57/B6J mouse model assessed as reduction in serum ALT level at 100 mg/kg/day, ip measured after 72 hrs post last dose by ELISA; type: functional, organism-based
# Hepatocyte [40] = experiment: Inhibition of TGF-beta1 induced apoptosis in C57/B6J mouse primary hepatocytes assessed as dead cells in presence of miR-190a-5p mimic by Annexin-V-FITC-H and PI staining based flow cytometry analysis (reference value: 3.68 %); type: functional; set-up: scale not given: the % may be the effect or the level left
compound,measurement,setting,value
CC1CN(CC2CCN(Cc3ccccc3)CC2)C(=O)N(c2cccc(C(=N)N)c2)C1.O=C(O)C(F)(F)F (stereo unspecified),Activity,Hepatocyte [1],Active
same,Activity,Hepatocyte [2],Active
same,Activity,Hepatocyte [3],Active
same,Activity,Hepatocyte [4],18.6%
same,Activity,Hepatocyte [5],13.59%
same,Activity,Hepatocyte [6],3.35%
same,Activity,Hepatocyte [7],Active
same,Activity,Hepatocyte [8],64.46%
Oc1ccc(/C=C/c2cc(O)cc(O)c2)cc1 [RESVERATROL],Activity,Hepatocyte [9],1.49%
same,Activity,Hepatocyte [10],84.53%
same,Activity,Hepatocyte [11],17.41%
same,Activity,Hepatocyte [12],6.54%
same,Activity,Hepatocyte [13],Active
same,Activity,Hepatocyte [14],11.38%
same,Activity,Hepatocyte [15],0.95%
same,Activity,Hepatocyte [16],7.99%
same,Activity,Mus musculus [17],Active
same,Activity,Mus musculus [18],Active
same,inhibition,Hepatocyte [19],Active
same,Activity,Hepatocyte [20],70.1%
same,Activity,Hepatocyte [21],69.83%
same,Activity,Hepatocyte [22],0.64%
same,Activity,Hepatocyte [23],75.96%
same,Activity,Mus musculus [24],Active
same,Activity,Hepatocyte [25],10.05%
same,Activity,Hepatocyte [26],2.44%
same,Activity,HepG2,Active
same,Activity,Hepatocyte [27],9.96%
same,Activity,Hepatocyte [28],83.06%
same,inhibition,Hepatocyte [29],Active
same,Activity,Hepatocyte [30],12.59%
same,inhibition,Mus musculus [31],Active
same,Activity,Mus musculus [32],Active
same,Activity,Hepatocyte [33],11.36%
same,Activity,Hepatocyte [34],16.37%
same,Activity,Hepatocyte [35],5.25%
same,Activity,Mus musculus [36],Active
same,Activity,Mus musculus [37],Active
same,Activity,Mus musculus [38],Active
same,Activity,Mus musculus [39],Active
same,Activity,Hepatocyte [40],1.12%
